The values that follow come from US8278311B2, “Substituted pyrimidine derivatives” (Abbott Laboratories, priority 2008, dated 2012).

In experiment [1] the target is T1, histamine H4 receptor (Homo sapiens, UniProt Q9H3N8).
T1 construct: expressed in transfected cells
Briefly: in vitro assay of histamine H4 activity using FLIPR-Ca+2 flux. Format: cell-based. As to conditions: HEK-293 cells stably expressing histamine H4 receptor and Gαqi5, Fluo-4; Kb for antagonists and inverse agonists, EC50 for partial agonists. The text has this: There are many methods available to show the effectiveness of compounds as histamine H4 receptor ligands. Histamine H4 receptors from mammalian species have been cloned. Methods to clone, express, and assess the potency and functional activity of such cloned genes are well known to those skilled in the art of molecular biology. Examples of methods of cloning and expressing histamine H4 receptors, and of assessing the potency and functional activity are described in Nguyen, et al. Molecular Pharmacology (2001) vol. 59 pp. 427-433; Zhu, et al. Molecular Pharmacology (2001) vol. 59 pp. 434-441; Coge, et al., Biochemical and Biophysical Research Communications (2001) vol. 284, pp. 301-309; Liu, et al. Molecular Pharmacology (2001) vol. 59 pp. 420-426; Liu, et al. Journal of Pharmacology and Experimental Therapeutics (2001) v. 299, pp. 121-130; and Thurmond, et al. Journal of Pharmacology and Experimental Therapeutics (2004) v. 309, pp. 404-413. In the present case, to determine the potency and effectiveness of representative compounds of this invention as histamine-H4 receptor ligands (H4 receptor ligands), the following tests were conducted according to previously described methods (see Esbenshade, et al., Biochemical Pharmacology (2004), vol. 68, pp. 933-945, and in Krueger, et al., Journal of Pharmacology and Experimental Therapeutics (2005) v. 314, pp. 271-281): histamine H4 receptors were cloned and stably expressed in HEK-293 (human embryonic kidney) cells coexpressing a Gαqi5. Before testing, cells are loaded with a Ca+^2 sensitive fluorescent dye, in this case Fluo-4 (Invitrogen, Carlsbad, Calif.). In the case of partial agonist or agonist ligands, addition of compound to the cells leads to the increase in intracellular Ca^+2 which is detected by FLIPR (Fluorescence Imaging Plate Reader; Molecular Devices, Sunnyvale, Calif.) technology. In a similar manner, compounds that are antagonists or inverse agonists, block the increase in fluorescence induced by the full histamine H4 agonist histamine, and partial agonists reduce the amount of fluorescence induced by the full histamine H4 agonist histamine. The fluorescence intensities measured before addition of the test compound are subtracted from the fluorescence intensities at later time points. Peak response values determined at each concentration of ligand are expressed as a percentage of the response obtained with the full agonist histamine. Concentration versus response data are analyzed to obtain compound potency as Kb values for antagonists and inverse agonists and as EC50 values for partial agonists.

Experiment [2] addresses T1, histamine H4 receptor. Briefly: 3H-histamine competition binding assay. As to conditions: membranes of HEK-293 cells transiently transfected with histamine H4 receptor; [3H]-histamine, 25° C., 1 hour; read-out: Binding assay Potency (Ki). How it is done:
The potency of compounds of the invention in displacing ^3H-histamine in competition binding assays is assessed by methods described in Esbenshade, et al., Biochemical Pharmacology (2004), vol. 68, pp. 933-945. In this assay, membranes were prepared from HEK-293 cells transiently transfected with the pClNeo expression vector harboring the histamine H4 receptor by homogenization of the cells on ice in TE buffer (50 mM Tris-HCl buffer, pH 7.4, containing 5 mM EDTA), 1 mM benzamidine, 2 μg/mL aprotinin, 1 μg/mL leupeptin, and 1 μg/mL pepstatin. The homogenate was centrifuged at 40,000 g for 20 minutes at 4° C. This step was repeated, and the resulting pellet was resuspended in TE buffer. Aliquots were frozen at −70° C. until needed. On the day of assay, membranes were thawed and diluted with TE buffer. Competition radioligand binding assays were performed with increasing concentrations of test compound in the presence of [^3H]-histamine incubated at 25° C. for 1 hour in a total volume of 0.5 mL of 50 mM Tris, 5 mM EDTA, pH 7.4. All binding reactions were terminated by filtration under vacuum onto polyethylenimine (0.3%) presoaked Unifilters (PerkinElmer Life Sciences) or Whatman GF/B filters (Whatman, Clifton, N.J.) followed by three brief washes with 4 mL of ice-cold TE buffer. Bound radiolabel was determined by liquid scintillation counting. For all of the radioligand competition binding assays, IC50 values and Hill slopes were determined by Hill transformation of the data and Ki values were determined by the Cheng-Prusoff equation. The following table of representative histamine H4 receptor ligands is provided, along with potency values: […]

The test system of experiment [3] is carrageenan-induced thermal hyperalgesia. Kind of experiment: acute model of carrageenan-induced thermal hyperalgesia (hotbox assay). Format: in vivo. The following applies: assessed 30 minutes after dosing. How it is done: To assess the effectiveness of representative compounds of the invention against acute model inflammatory pain, animals were tested in an acute model of carrageenan-induced thermal hyperalgesia (see for example, Honore, et al. Behavioural Brain Research (2006) vol. 167 pp. 355-364; Porreca, et al. Journal of Pharmacology and Experimental Therapeutics (2006) vol. 318 pp. 195-205). Carrageenan was injected into the test paw of the animal, and after 90 minutes, the test drug was administered by intraperitoneal dosing; the effect on thermal hyperalgesia was assessed in a hotbox assay which was done 30 minutes after the intraperitoneal dosing of the test drug, and the MPE (maximal percent effect) reported by comparison to the control paw (not injected with carrageenan), according to 100 times the withdrawal latency of the carrageenan injected paw (in seconds) divided by the withdrawal latency of the control (not injected with carrageenan) paw. […] Representative compounds are active in this model, with preferred compounds of the invention active in the model at doses of about 100 micromoles/kg of body weight.

[4] abbreviates: 100 micromole/kg injected intraperitoneally.

For orientation: Ki means a dissociation constant, usually derived from enzyme kinetics or from competition with a known ligand.

T1 sequence (Q9H3N8 whole entry, species assumed): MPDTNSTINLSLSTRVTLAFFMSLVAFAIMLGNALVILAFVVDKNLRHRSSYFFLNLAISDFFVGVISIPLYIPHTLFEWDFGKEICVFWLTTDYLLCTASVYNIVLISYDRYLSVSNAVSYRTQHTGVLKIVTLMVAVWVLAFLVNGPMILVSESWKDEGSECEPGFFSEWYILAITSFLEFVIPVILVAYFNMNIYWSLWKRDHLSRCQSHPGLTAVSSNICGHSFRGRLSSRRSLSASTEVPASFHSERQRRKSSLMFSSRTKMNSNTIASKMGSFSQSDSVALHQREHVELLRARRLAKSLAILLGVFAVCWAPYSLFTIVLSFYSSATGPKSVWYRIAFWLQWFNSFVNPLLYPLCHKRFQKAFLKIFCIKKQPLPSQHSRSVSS

On histamine H4 receptor [1], `Nc1nc2c(c(N3CCNCC3)n1)CCC1=C2C2CCCCC2O1` (stereo not shown) [Example 1, 4-piperazin-1-yl-5,6,7a,8,9,10,11,11a-octahydro[1]benzofuro[2,3-h]quinazolin-2-amine] came in with a Potency of 4.7 nM. Moreover, at histamine H4 receptor [2], the Ki is 5.8 nM. Also, the figures for the “MPE (maximal percent effect)” value in experiment [3] (30 micromole/kg injected intraperitoneally) and in experiment [3] (setting [4]) were 48% and 68%, respectively.
Turning to `Nc1nc2c(c(N3CCNCC3)n1)CCC1=C2[C@@H]2CCCC[C@@H]2O1` (single isomer, unassigned) [Example 3, (−)-(7aS*,11aS*)-4-piperazin-1-yl-5,6,7a,8,9,10,11,11a-octahydro[1]benzofuro[2,3-h]quinazolin-2-amine], the Potency at histamine H4 receptor [1] is given as 5.9 nM. For the same molecule, the Ki at histamine H4 receptor [2] was determined as 16.6 nM. Besides, the “MPE (maximal percent effect)” value in experiment [3] (setting [4]) was 47%.
In the same order, the values of `Nc1nc2c(c(N3CCNCC3)n1)CCC1=C2[C@H]2CCCC[C@H]2O1` (single isomer, unassigned) [Example 4, (+)-(7aR*,11aR*)-4-piperazin-1-yl-5,6,7a,8,9,10,11,11a-octahydro[1]benzofuro[2,3-h]quinazolin-2-amine] are 4.5 nM, 3 nM and 63%.
In turn, `CN[C@@H]1CCN(c2nc(N)nc3c2CCCC2C4C=CC(CC4)C32)C1` (stereo partly drawn) [Example 25, 4-[(3R)-3-(methylamino)pyrrolidin-1-yl]-6,7,7a,8,11,11a-hexahydro-5H-8,11-ethanobenzo[6,7]cyclohepta[1,2-d]pyrimidin-2-amine] yielded a Potency at histamine H4 receptor [1] of 24.0 nM. The Ki on histamine H4 receptor [2] turned out to be 5.6 nM.
In the same order, the values of `CN[C@@H]1CCN(c2nc(N)nc3c2CCCC2C4CCC(CC4)C32)C1` (stereo partly drawn) [Example 28, 4-[(3R)-3-(methylamino)pyrrolidin-1-yl]-6,7,7a,8,9,10,11,11a-octahydro-5H-8,11-ethanobenzo[6,7]cyclohepta[1,2-d]pyrimidin-2-amine] are 21.9 nM and 5.5 nM.
In the same order, the values of `Nc1nc2c(c(N3CCNCC3)n1)CC[C@@H]1CCCC[C@H]21` (relative stereo) [Example 13, cis-4-piperazin-1-yl-5,6,6a,7,8,9,10,10a-octahydrobenzo[h]quinazolin-2-amine] are 3.3 nM and 1.8 nM.
